Activity calls are given as the source filed them. No cut-off for these calls is given here.
Experiments:
[1] = molecular target: Coagulation factor XI (Homo sapiens) (UniProt P03951); assay: Inhibition of factor 11a (unknown origin) at IC50 using S-2366 as substrate preincubated for 1 min followed by chromogenic substrate addition and measured for 2 mins; settings: time 3.0 min
[2] = molecular target: Prothrombin (Homo sapiens) (UniProt P00734); assay: Inhibition of factor 2a (unknown origin) at IC50 preincubated for 1 min followed by chromogenic substrate addition and measured for 2 mins in presence of AT-III; settings: time 3.0 min
Coagulation factor IX [3] = molecular target: T1, Coagulation factor IX (Homo sapiens, UniProt P00740); assay: Inhibition of factor 9a (unknown origin) binding to immobilized biotinylated oHG-11 assessed as activity potency of oligosaccharides multiplied by the percentage of oligosaccharides in dHG-5 by biolayer interferometry relative to dHG-5
T1 sequence (P00740 47-191 limits assumed): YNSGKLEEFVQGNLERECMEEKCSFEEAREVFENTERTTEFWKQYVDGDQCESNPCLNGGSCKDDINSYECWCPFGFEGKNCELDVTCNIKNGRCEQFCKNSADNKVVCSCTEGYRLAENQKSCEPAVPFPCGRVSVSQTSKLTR
T1 sequence (P00740 227-461 limits assumed): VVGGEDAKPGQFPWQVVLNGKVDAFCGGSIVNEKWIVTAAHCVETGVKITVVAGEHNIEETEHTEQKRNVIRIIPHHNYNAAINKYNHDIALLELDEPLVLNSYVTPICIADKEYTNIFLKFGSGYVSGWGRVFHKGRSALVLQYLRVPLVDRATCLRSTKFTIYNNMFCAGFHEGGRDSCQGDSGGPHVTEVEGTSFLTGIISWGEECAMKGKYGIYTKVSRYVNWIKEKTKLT

Rattus norvegicus [4] = assay: Antithrombotic activity in thromboplastin and stasis-induced Sprague-Dawley rat deep venous thrombosis model assessed as reduction in venous thrombosis by measuring activity potency of oligosaccharides multiplied by the percentage of oligosaccharides in dHG-5 at 1.66 mg/kg, sc administered 1 hr prior to thromboplastin addition for 20 secs followed by establishment of stasis for 20 mins relative …; assay type: functional; settings: time 80.33 min, 1.339 h
[5] = molecular target: T2, Coagulation factor IX/VIII (Homo sapiens) (UniProt P00740+P00451); assay: (§1) Inhibition of human citrated plasma iXase (factor 8a-factor 9a complex) preincubated for 2 mins followed by factor 10 addition and measured after 1 min by FXa chromogenic substrate SXa-11 based assay relative to dHG-5; assay type: protein-complex assay; settings: time 3.0 min
Rattus norvegicus [6] = assay: Antithrombotic activity in thromboplastin and stasis-induced Sprague-Dawley rat deep venous thrombosis model assessed as reduction in venous thrombosis at 1.66 mg/kg, sc administered 1 hr prior to thromboplastin addition for 20 secs followed by establishment of stasis for 20 mins relative to dHG-5; assay type: functional; settings: time 80.33 min, 1.339 h
[7] = molecular target: T3, Coagulation factor XII (Homo sapiens) (UniProt P00748); assay: Inhibition of factor 12a (unknown origin) at IC50 using kallikrein chromogenic substrate preincubated for 1 min followed by chromogenic substrate addition and measured for 2 mins in presence of AT-III; settings: time 3.0 min
T3 sequence (whole entry): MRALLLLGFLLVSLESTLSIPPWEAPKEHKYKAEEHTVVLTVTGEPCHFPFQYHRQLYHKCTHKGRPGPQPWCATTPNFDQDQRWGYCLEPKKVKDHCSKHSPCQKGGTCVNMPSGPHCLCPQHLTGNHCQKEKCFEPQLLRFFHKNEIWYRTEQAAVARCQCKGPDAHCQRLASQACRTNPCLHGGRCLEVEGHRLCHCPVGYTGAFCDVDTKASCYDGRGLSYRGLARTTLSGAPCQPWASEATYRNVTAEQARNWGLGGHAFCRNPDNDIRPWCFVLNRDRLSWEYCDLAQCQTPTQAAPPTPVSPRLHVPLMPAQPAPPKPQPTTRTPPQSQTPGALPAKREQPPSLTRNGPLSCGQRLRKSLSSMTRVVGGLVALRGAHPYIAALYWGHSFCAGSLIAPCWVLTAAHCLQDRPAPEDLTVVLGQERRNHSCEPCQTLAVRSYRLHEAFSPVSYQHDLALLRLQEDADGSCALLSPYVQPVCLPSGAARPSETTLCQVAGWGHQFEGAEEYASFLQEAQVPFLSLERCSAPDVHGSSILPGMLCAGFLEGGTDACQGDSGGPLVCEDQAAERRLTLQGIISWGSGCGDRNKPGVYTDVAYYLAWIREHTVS

[8] = molecular target: T3, Coagulation factor XII (Homo sapiens); assay: Inhibition of factor 12a (unknown origin) at IC50 using kallikrein chromogenic substrate preincubated for 1 min followed by chromogenic substrate addition and measured for 2 mins; settings: time 3.0 min
[9] = molecular target: Coagulation factor X (Homo sapiens) (UniProt P00742); assay: Inhibition of factor 10a (unknown origin) at IC90 preincubated for 1 min followed by chromogenic substrate addition and measured for 2 mins in presence of AT-III relative to control; settings: time 3.0 min
Coagulation factor X (Homo sapiens), sequence (P00742 41-179 limits assumed): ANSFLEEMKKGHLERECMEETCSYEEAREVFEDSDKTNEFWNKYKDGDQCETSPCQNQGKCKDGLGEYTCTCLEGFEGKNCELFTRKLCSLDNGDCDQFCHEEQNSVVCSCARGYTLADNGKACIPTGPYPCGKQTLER
Coagulation factor X (Homo sapiens), sequence (P00742 235-488 limits assumed): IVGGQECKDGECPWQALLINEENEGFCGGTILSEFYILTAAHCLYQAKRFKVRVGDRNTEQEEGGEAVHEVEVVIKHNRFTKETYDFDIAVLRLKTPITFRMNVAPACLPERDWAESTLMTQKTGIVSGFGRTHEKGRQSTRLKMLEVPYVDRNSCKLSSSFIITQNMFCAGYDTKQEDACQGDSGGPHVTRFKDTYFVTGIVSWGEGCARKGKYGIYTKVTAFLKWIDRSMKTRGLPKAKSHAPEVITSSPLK

[10] = molecular target: Coagulation factor X (Homo sapiens) (UniProt P00742); assay: Inhibition of factor 10a (unknown origin) at IC50 preincubated for 1 min followed by chromogenic substrate addition and measured for 2 mins in presence of AT-III; settings: time 3.0 min
Plasma [11] = assay: (§2) Anticoagulation activity in human plasma assessed as drug level causing 20 times doubling of APTT preincubated for 2 mins followed by APTT reagent and measured after 3 mins by coagulometric method relative to dHG-5; assay type: functional; settings: time 5 min
[12] = molecular target: Prothrombin (Homo sapiens) (UniProt P00734); assay: Inhibition of factor 2a (unknown origin) at IC90 preincubated for 1 min followed by chromogenic substrate addition and measured for 2 mins in presence of AT-III; settings: time 3.0 min
[13] = molecular target: Coagulation factor X (Homo sapiens) (UniProt P00742); assay: Inhibition of factor 10a (unknown origin) at IC50 preincubated for 1 min followed by chromogenic substrate addition and measured for 2 mins; settings: time 3.0 min
[14] = molecular target: T2, Coagulation factor IX/VIII (Homo sapiens); assay: as §1, with “complex) assessed as activity potency of oligosaccharides multiplied by the percentage of oligosaccharides in dHG-5” for “complex)”; assay type: protein-complex assay; settings: time 3.0 min
[15] = molecular target: Prothrombin (Homo sapiens) (UniProt P00734); assay: Inhibition of factor 2a (unknown origin) at IC50 preincubated for 1 min followed by chromogenic substrate addition and measured for 2 mins; settings: time 3.0 min
[16] = molecular target: T4, Coagulation factor VII (Homo sapiens) (UniProt P08709); assay: Inhibition of factor 7a (unknown origin) at IC50 using pefachrome factor VIIa as substrate preincubated for 1 min followed by chromogenic substrate addition and measured for 2 mins; settings: time 3.0 min
T4 sequence (whole entry): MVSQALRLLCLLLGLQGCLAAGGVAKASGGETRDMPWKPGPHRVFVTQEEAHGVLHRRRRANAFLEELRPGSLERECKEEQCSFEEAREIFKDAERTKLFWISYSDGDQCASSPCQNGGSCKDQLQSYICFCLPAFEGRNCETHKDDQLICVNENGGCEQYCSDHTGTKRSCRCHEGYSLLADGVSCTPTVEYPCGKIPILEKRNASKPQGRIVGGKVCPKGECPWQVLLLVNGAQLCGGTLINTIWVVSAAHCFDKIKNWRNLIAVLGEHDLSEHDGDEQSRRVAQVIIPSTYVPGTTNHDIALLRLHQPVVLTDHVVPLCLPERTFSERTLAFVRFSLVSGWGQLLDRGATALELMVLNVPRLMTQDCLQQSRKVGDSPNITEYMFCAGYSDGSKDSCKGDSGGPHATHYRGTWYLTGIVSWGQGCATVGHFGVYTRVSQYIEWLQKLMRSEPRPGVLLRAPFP

Plasma [17] = assay: as §2, with “of APTT by measuring activity potency of oligosaccharides multiplied by the percentage of oligosaccharides in dHG-5 preincubated for” for “of APTT preincubated for”; assay type: functional; settings: time 5 min
[18] = molecular target: Coagulation factor XI (Homo sapiens) (UniProt P03951); assay: Inhibition of factor 11a (unknown origin) at IC50 using S-2366 as substrate preincubated for 1 min followed by chromogenic substrate addition and measured for 2 mins in presence of AT-III; settings: time 3.0 min
Coagulation factor IX [19] = molecular target: T1, Coagulation factor IX; assay: Inhibition of factor 9a (unknown origin) binding to immobilized biotinylated oHG-11 by biolayer interferometry relative to dHG-5
[20] = molecular target: T4, Coagulation factor VII (Homo sapiens); assay: Inhibition of factor 7a (unknown origin) at IC50 using pefachrome factor VIIa as substrate preincubated for 1 min followed by chromogenic substrate addition and measured for 2 mins in presence of AT-III; settings: time 3.0 min
[21] = molecular target: Coagulation factor XI (Homo sapiens) (UniProt P03951); assay: Inhibition of factor 11a (unknown origin) at IC90 using S-2366 as substrate preincubated for 1 min followed by chromogenic substrate addition and measured for 2 mins in presence of AT-III; settings: time 3.0 min

Coagulation factor XI (Homo sapiens), sequence (P03951 19-387 limits assumed): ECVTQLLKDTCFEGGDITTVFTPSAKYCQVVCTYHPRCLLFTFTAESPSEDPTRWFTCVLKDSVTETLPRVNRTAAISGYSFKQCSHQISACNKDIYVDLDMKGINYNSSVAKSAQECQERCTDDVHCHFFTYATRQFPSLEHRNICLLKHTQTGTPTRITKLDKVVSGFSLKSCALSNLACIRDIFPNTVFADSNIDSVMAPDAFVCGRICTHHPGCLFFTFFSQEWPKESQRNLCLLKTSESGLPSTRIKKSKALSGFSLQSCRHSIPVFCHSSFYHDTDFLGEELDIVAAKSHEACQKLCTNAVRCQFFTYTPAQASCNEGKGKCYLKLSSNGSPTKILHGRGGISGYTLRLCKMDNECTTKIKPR
Coagulation factor XI (Homo sapiens), sequence (P03951 388-625 limits assumed): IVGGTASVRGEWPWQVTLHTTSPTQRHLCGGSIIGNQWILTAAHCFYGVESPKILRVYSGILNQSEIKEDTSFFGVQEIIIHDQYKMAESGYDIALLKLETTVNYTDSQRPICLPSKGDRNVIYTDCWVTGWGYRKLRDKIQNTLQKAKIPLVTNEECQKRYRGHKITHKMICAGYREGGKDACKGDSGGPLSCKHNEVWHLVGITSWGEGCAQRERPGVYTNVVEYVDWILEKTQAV

Compound: CC(=O)N[C@H]1[C@H](O[C@H]2[C@H](O[C@@H]3O[C@@H](C)[C@@H](OS(=O)(=O)[O-])[C@@H](OS(=O)(=O)O)[C@@H]3O)[C@@H](O)[C@H](O[C@@H]3[C@@H](NC(C)=O)[C@H](O[C@H]4[C@H](O[C@@H]5O[C@@H](C)[C@@H](OS(=O)(=O)[O-])[C@@H](OS(=O)(=O)O)[C@@H]5O)[C@@H](O)[C@H](O[C@@H]5[C@@H](NC(C)=O)[C@H](O[C@H]6[C@H](O[C@@H]7O[C@@H](C)[C@@H](OS(=O)(=O)[O-])[C@@H](OS(=O)(=O)O)[C@@H]7O)[C@@H](O)[C@H](O[C@@H]7[C@@H](NC(C)=O)[C@H](O[C@H]8[C@H](O[C@@H]9O[C@@H](C)[C@@H](OS(=O)(=O)[O-])[C@@H](OS(=O)(=O)O)[C@@H]9O)[C@@H](O)[C@H](O[C@@H]9[C@@H](NC(C)=O)[C@H](O[C@@H]([C@H](O[C@@H]%10O[C@@H](C)[C@@H](OS(=O)(=O)[O-])[C@@H](OS(=O)(=O)O)[C@@H]%10O)[C@@H](O)CO)[C@H](O)C(=O)O)O[C@H](COS(=O)(=O)[O-])[C@@H]9OS(=O)(=O)[O-])O[C@@H]8C(=O)O)O[C@H](COS(=O)(=O)[O-])[C@@H]7OS(=O)(=O)[O-])O[C@@H]6C(=O)[O-])O[C@H](COS(=O)(=O)[O-])[C@@H]5OS(=O)(=O)[O-])O[C@@H]4C(=O)[O-])O[C@H](COS(=O)(=O)[O-])[C@@H]3OS(=O)(=O)[O-])O[C@@H]2C(=O)[O-])O[C@H](COS(=O)(=O)[O-])[C@H](OS(=O)(=O)[O-])[C@@H]1O[C@@H]1O[C@H](C(=O)[O-])[C@@H](O[C@@H]2O[C@H](COS(=O)(=O)[O-])[C@H](OS(=O)(=O)[O-])[C@H](O[C@@H]3O[C@H](C(=O)[O-])[C@@H](O[C@@H]4O[C@H](COS(=O)(=O)[O-])[C@H](OS(=O)(=O)[O-])[C@H](O[C@@H]5O[C@H](C(=O)O)[C@@H](O[C@@H]6O[C@H](COS(=O)(=O)[O-])[C@H](OS(=O)(=O)[O-])[C@H](O[C@@H]7OC(C(=O)O)=C[C@H](O[C@@H]8O[C@@H](C)[C@@H](OS(=O)(=O)[O-])[C@@H](OS(=O)(=O)O)[C@@H]8O)[C@H]7O)[C@H]6NC(C)=O)[C@H](O[C@@H]6O[C@@H](C)[C@@H](OS(=O)(=O)[O-])[C@@H](OS(=O)(=O)O)[C@@H]6O)[C@H]5O)[C@H]4NC(C)=O)[C@H](O[C@@H]4O[C@@H](C)[C@@H](OS(=O)(=O)[O-])[C@@H](OS(=O)(=O)O)[C@@H]4O)[C@H]3O)[C@H]2NC(C)=O)[C@H](O[C@@H]2O[C@@H](C)[C@@H](OS(=O)(=O)[O-])[C@@H](OS(=O)(=O)O)[C@@H]2O)[C@H]1O.[Na+].[Na+].[Na+].[Na+].[Na+].[Na+].[Na+].[Na+].[Na+].[Na+].[Na+].[Na+].[Na+].[Na+].[Na+].[Na+].[Na+].[Na+].[Na+].[Na+].[Na+].[Na+].[Na+].[Na+].[Na+].[Na+].[Na+].[Na+].[Na+].[Na+]
- inhibition [1]: inactive
- inhibition [2]: inactive
- Ratio (Coagulation factor IX [3]): 11.2 U
- Ratio (Rattus norvegicus [4]): 13.38 U
- Ratio [5]: 403 U
- Ratio (Rattus norvegicus [6]): 284.73 U
- inhibition [7]: inactive
- inhibition [8]: inactive
- inhibition [9]: inactive
- inhibition [10]: inactive
- Ratio (Plasma [11]): 319.64 U
- inhibition [12]: Active
- inhibition [13]: inactive
- Ratio [14]: 19.1 U
- inhibition [15]: inactive
- inhibition (active/not active) [16]: inactive
- Ratio (Plasma [17]): 15.15 U
- inhibition [18]: inactive
- Ratio (Coagulation factor IX [19]): 235 U
- inhibition [20]: inactive
- inhibition [21]: Active
